Reference: US20210275547A1, “Methods of Modulating Activity of a Cyclic Dinucleotide (CDN) with a CDN Transporter-Modulating Agent” (THE REGENTS OF THE UNIVERSITY OF CALIFORNIA, priority 2018, published 2021)
“Also recorded” adds a separate entry of the source.

Legend:
[1] = biological target: T1, SLC19A1 (Homo sapiens, UniProt P41440); assay: Reporter response to CDNs in THP-1 cells with SLC19A1 knocked down or overexpressed; conditions: SLC19A1 knockdown vs control, synthetic CDN 1.7 μg/ml, hIFNβ 100 ng/ml, 20 h
T1 sequence (P41440 1-591): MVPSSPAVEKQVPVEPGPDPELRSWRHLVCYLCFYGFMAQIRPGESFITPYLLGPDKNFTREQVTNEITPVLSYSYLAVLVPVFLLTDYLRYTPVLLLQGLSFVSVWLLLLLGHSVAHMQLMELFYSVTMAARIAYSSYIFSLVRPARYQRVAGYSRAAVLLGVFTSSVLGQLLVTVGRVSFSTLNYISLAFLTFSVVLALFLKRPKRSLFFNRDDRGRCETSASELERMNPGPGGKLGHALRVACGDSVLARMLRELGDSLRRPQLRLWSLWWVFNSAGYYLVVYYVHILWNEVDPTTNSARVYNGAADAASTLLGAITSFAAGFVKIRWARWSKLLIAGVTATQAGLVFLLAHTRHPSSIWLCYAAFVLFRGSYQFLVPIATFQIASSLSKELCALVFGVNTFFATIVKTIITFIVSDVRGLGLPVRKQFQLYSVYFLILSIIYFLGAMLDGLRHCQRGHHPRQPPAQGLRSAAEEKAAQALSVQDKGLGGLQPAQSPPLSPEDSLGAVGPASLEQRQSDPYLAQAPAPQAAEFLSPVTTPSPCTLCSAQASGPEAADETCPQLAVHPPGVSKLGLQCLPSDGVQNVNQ
Method: To test the role of SLC19A1 in the response to extracellular CDNs, THP-1 cell lines were created in which SLC19A1 was knocked-down or knocked-out, using conventional methods. SLC19A1 knockdown was confirmed and cells were stimulated with synthetic CDN or hIFNβ.
Panel A) Flow cytometry-generated dot plots of THP-1 cells expressing an ISRE-driven tdTomato reporter. Reporter expression was induced upon stimulation with the synthetic CDN (1.7 μg/ml) for 20 h. Panel B) Validation of targets identified by a genome-wide screen using THP-1 cells described in (Panel A) using conventional methods. Cells expressed a control vector or IRF3 or SLC19A1 gRNA. Cells were stimulated with (Panel B) synthetic CDN (1.7 μg/ml) or (Panel D) human interferon-beta (hIFNβ) (100 ng/ml) for 20 h. Cells were analyzed for reporter by flow cytometry as in (A). E) Indicated cell lines expressing SLC19A1 or vector only were stimulated with synthetic CDN (1.7 μg/ml). Reporter expression was measured 20 h after stimulation.

[2] = system: THP-1 cells expressing an ISRE-driven tdTomato reporter; assay: Synthetic CDN or hIFNβ stimulation of tdTomato reporter THP-1 cells in the presence of sulfasalazine; assay type: cell-based, human
Source text: To identify genes encoding molecules involved in this process, a reporter system was created to detect STING activation in response to extracellular CDNs, in order to perform a genetic screen. The reporter was composed of an Interferon Stimulatory Response Element (ISRE) cassette driving the expression of the fluorescent protein tdTomato. […] Subsequently, THP-1 cells containing the reporter were transduced with a genome-wide library of guide RNAs (gRNAs), which suppress expression of target genes. The library targeted 20,000 genes within the human genome. The gRNA library-expressing THP-1 cells were stimulated with synthetic CDN, and the cells were subsequently sorted into two populations based on either low (hyporesponsive) or high (hyper-responsive) levels of tdTomato reporter expression. These populations were sequenced to reveal the RNA targets. As expected, gRNAs targeting components of the STING pathway, including IRF3 and STING itself, were enriched in the hyporesponsive cells and depleted in the hyper-responsive cells, corroborating the success of the screening procedure. Other “hits” in the screen were examined for their role in CDN transport.
The transport activity of folate by SLC19A1 can be altered by a variety of organic and inorganic anions, including the compound sulfasalazine (Jansen et al. “Sulfasalazine is a potent inhibitor of the reduced folate carrier: Implications for combination therapies with methotrexate in rheumatoid arthritis.” Arthritis Rheum. 50, 2130-2139 (2004); Goldman, “The characteristics of the membrane transport of amethopterin and the naturally occurring folates.” Ann. N. Y. Acad. Sci. 186, 400-22 (1971)). […] We therefore tested whether sulfasalazine blocks the response of cells to CDNs.
FIG. 2. Panel A) THP-1 cells were stimulated with synthetic CDN (2.5 μg/ml) in the presence of high concentrations of sulfasalazine (SSZ) or vehicle. Reporter expression was measured 20 h post stimulation. […] Reporter expression was measured 20 h post stimulation.

[3] = biological target: T1, SLC19A1; conditions: at high doses; cited from earlier work

Row | effect of knocking down SLC19A1 expression on the response to the stimulant [1] | Compound | response of the cells to hIFNβ ([2]; either low or high sulfasalazine concentrations) | response to synthetic CDN stimulation (reporter expression) ([2]; high concentration (1000 μM) of sulfasalazine, synthetic CDN 2.5 μg/ml, 20 h post stimulation) | responsiveness of cells to synthetic CDN compared to untreated cells (reporter expression) ([2]; low concentrations of sulfasalazine (e.g. 100 μM), synthetic CDN 1.25 μg/ml, 20 h post stimulation) | transport of folates and folate-derivatives by SLC19A1 [3]
1 | reduced the response | Nc1ncnc2c1ncn2[C@@H]1O[C@@H]2COP(=O)(O)O[C@H]3[C@@H](O)[C@H](n4cnc5c(N)ncnc54)O[C@@H]3COP(=O)(O)O[C@H]2[C@H]1O [CDA, cyclic di-AMP] |  |  |  | 
2 |  | O=C(O)c1cc(/N=N/c2ccc(S(=O)(=O)Nc3ccccn3)cc2)ccc1O [sulfasalazine] | only marginally affected | complete blocking; also recorded: almost completely blocked | significantly increased | non-competitively inhibits
